Measured values as given in patent publication US6969730B2, “Amines as histamine-3 receptor ligands and their therapeutic applications” (Abbott Laboratories, priority 2001, dated 2005).
Where a name gives a salt, the structure may show the parent alone.

Experiments:
[1] = target: T1, histamine-3 receptors (H3 receptor) (Rattus norvegicus, UniProt Q9QYN8); experiment: (3H)-N-α-methylhistamine binding to rat cortical membranes (histamine-3 receptor ligands); settings: male Sprague-Dawley rat brain cortical membranes; (3H)-N-α-methylhistamine ~0.6 nM; 30 minutes at 25° C.; Cheng-Prusoff
T1 construct: from tissue; host or cells: male Sprague-Dawley rat brain cortex membranes
T1 sequence (Q9QYN8 whole entry): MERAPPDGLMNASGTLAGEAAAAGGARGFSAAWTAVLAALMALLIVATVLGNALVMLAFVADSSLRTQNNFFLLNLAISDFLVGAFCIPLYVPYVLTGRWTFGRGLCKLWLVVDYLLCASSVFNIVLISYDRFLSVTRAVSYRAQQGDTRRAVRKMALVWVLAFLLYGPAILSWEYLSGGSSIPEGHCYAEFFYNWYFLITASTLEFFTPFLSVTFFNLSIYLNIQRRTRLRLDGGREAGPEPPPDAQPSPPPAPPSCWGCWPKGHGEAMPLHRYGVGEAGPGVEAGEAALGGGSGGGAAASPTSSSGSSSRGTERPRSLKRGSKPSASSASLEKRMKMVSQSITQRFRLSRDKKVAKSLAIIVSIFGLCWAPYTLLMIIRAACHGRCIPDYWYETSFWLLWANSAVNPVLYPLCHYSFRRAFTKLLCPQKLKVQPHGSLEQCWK

SMILES | melting point [°C] | Ki [1] [nM]
CC[C@@H]1CCCN1CCc1cc2cc(-c3ccc(C#N)cc3)ccc2o1 (as salt: tartrate) [Example 163, 4-(2-{2-[(2R)-2-ethyl-1-pyrrolidinyl]ethyl}-1-benzofuran-5-yl)benzonitrile] | 147 | –
N#Cc1ccc(-c2ccc3oc(CCN)cc3c2)cc1 [Example 162, 4-[2-(2-aminoethyl)-1-benzofuran-5-yl]benzonitrile] | 118 to 120 | 581
N#Cc1ccc(-c2ccc3oc(CCN4CCC[C@H]4CF)cc3c2)cc1 (as salt: tartrate) [Example 164, 4-(2-{2-[(2S)-2-(fluoromethyl)-1-pyrrolidinyl]ethyl}-1-benzofuran-5-yl)benzonitrile] | 156.3 | –
Cc1ccc(-c2ccc3oc(CCN4CCC[C@H]4C)cc3c2)cc1C [Example 130, (2R)-1-{2-[5-(3,4-dimethylphenyl)-1-benzofuran-2-yl]ethyl}-2-methylpyrrolidine] | – | 60
C[C@@H]1CCCN1CCc1cc2cc(-c3noc(-c4ccc(F)c(Cl)c4)n3)ccc2o1 [Example 96, 5-(3-chloro-4-fluorophenyl)-3-(2-{2-[(2R)-2-methylpyrrolidin-1-yl]ethyl}-1-benzofuran-5-yl)-1,2,4-oxadiazole] | – | 223
